# Data from patent US12648927B2, “Compositions and methods of enhancing immunotherapies” (Cha Therapeutics, Inc., priority 2018, dated 2026).
# What was measured:
# [1] = system: HLA-DRB5 (MHC II); experiment: IFN stimulated gene expression by qRT-PCR (HLA-DRB5), TNBC human xenograft tumors; assay type: in vivo; conditions: single components vs combination
# Description: It was tested in 6 treated and 5 untreated tumors. *P<0.05, **P<0.01, ***P<0.005, ****P<0.001. Data represented as mean±SEM.
# [2] = system: PDL-1; experiment: PDL-1 gene expression by qRT-PCR, human MDA-MB-231 xenograft tumors; assay type: in vivo; conditions: human tumors in immune compromised mice, 4-5 mice each group
# Text: Data represented as mean±SEM.
SMILES,HLA-DRB5 (MHC II) gene expression [1],"relative gene expression of PDL-1, increase [2]"
"Nc1ncn([C@H]2C[C@H](O)[C@@H](CO)O2)c(=O)n1 [DAC, decitabine]",no significant effect,2 fold
"O=C(O[C@@H]1Cc2c(O)cc(O)cc2O[C@@H]1c1cc(O)c(O)c(O)c1)c1cc(O)c(O)c(O)c1 [EGCG, epigallocatechin gallate]",no significant effect,
